This is an account of results in US8017727B2, “Conjugates of membrane translocating agents and pharmaceutically active agents” (Merrion Research III Limited, priority 1999, dated 2011).

Where two headings read alike, the source gives them in different places.

The nature of data set [1]: Systemic 3H bioavailability of kappa peptide conjugates, conscious rat model (plasma). The data set is classed as in vivo, Wistar rats. The procedure: The possible enhancing effects of ELAN094 and ELAN207 MTLPs (SEQ ID NOs 2 and 60) on intestinal absorption of the kappa peptide were examined in a conscious rat model.
The study was non-randomised, parallel group design. Wistar rats within the 250-350 g weight range were used. All animals were fasted for a period of 16 h prior to study initiation. Water was available at all times.
Intravenous injection of 10 μCi of ^3H-kappa peptide-Kaffiralin-1 (plain kappa peptide) (tail vein injection).
Intraduodenal instillation of 100 μCi of ^3H-kappa peptide-Elan094 (Analysed). The Elan094 ligand contains a membrane translocating sequence.
Intraduodenal instillation of 100 μCi of ^3H-kappa peptide-Elan207 (Analysed). The Elan207 ligand contains a membrane translocating sequence.
Intraduodenal instillation of 100 μCi of ^3H-kappa peptide-Kaffiralin-1.
The plasma (100-250 μl) was made up to 1 ml with BTS-450 (an organic tissue solubiliser) and incubated for 1 hour. Ten ml of Scintillation fluid was added and the radioactivity was measured.
The study was a non-randomised, parallel group biostudy designed to evaluate the systemic bioavailability of tritium labelled kappa peptide conjugates after intra-duodenal instillation in the conscious rat model. Each rat only received one treatment and the plasma samples were analysed for tritium content. The calculation of AUClast, Amax, tmax, Volume of Distribution (V d) and Clearance was based on base line corrected data. The absolute bioavailability was calculated using potency corrected data.

Data set [2] is described as follows: 3H tissue distribution of kappa peptide conjugates, conscious rat model. Format: in vivo, Wistar rats. To be noted: potency corrected; for Kidney, % of administered dose / Plasma, % of administered dose / Total Recovery, % of administered dose: t=6 h. How it is done: The tissue was weighed and a representative sample, (ca 0.1 g), was removed to a scintillation vial. The tissue was solubilzed with 1 ml of BTS-450 (an organic tissue solubliser). Ten ml of scintillation fluid was added and the radioactivity was measured. The radioactivity was expressed as dpm/initial weight of tissue.

The next data set deals with T1, kappa receptor (Rattus norvegicus, UniProt P34975).
T1 construct: from tissue; host or cells: rat brain homogenate
As to the kind of experiment: Competition for binding of a radiolabelled kappa peptide to rat brain homogenates. The following applies: for opioid activity post conjugation: compared to unconjugated H-ffir-NH2 or to the ELAN207 conjugate. The procedure:
The integrity of the opioid peptide was evaluated post conjugation to assess suitability for inclusion in further studies. Opioid activity was assessed in vitro using a competition assay (competition for binding of a radiolabelled kappa peptide to rat brain homogenates).

[3] abbreviates: intraduodenal (ID), 100 μCi, Elan207 = original group.
The mark [4] stands for this setting: IV, 10 μCi, listed as 3H Kappa peptide-Kaffiralin-1.
Setting [5] is: IC50, Table 11, first IC50 column.

Regarding `CC[C@@H](C)[C@@H](NC(=O)[C@@H](Cc1ccccc1)NC(=O)[C@H](N)Cc1ccccc1)C(=O)N[C@H](CCCNC(=N)N)C(N)=O` [3H-Kappa peptide-Kaffiralin-1], in data set [1] (setting [3]), the “3H AUClast” value turned out to be 73098.43±9493.88 dpm/ml·h and the “3H Amax (maximum radioactivity)” value stood at 70925.33±23631.28 dpm/ml. For the same compound, in data set [1] (intravenous (IV), 10 μCi), the “3H AUClast” value is listed as 132184.24±13288.32 dpm/ml·h and the “3H Amax (maximum radioactivity)” value is recorded as 903603.03±186855.31 dpm/ml. Besides, the bioavailability in data set [1] (rat, plasma, intraduodenal (ID), 100 μCi, potency corrected, Elan207 = original group, read-out: Absolute 3H bioavailability) came out at 7.94 ± 1.92%. This compound showed a clearance in data set [1] (rat, plasma, intravenous (IV), 10 μCi) of 2.38 mL/min. Besides, the Vd in data set [1] (rat, plasma, intravenous (IV), 10 μCi, read-out: Volume of Distribution) turned out to be 0.964 ± 0.256 L. In data set [2] (ID, 100 μCi), the “Catheter, % of administered dose” value came to 0.06 ± 0.05%; the “GI Tissue, % of administered dose” value was 7.72 ± 4.98%; the “GI Washing, % of administered dose” value was 15.85 ± 5.00%; the “GI contents, % of administered dose” value amounted to 37.31 ± 15.75%. Besides, in data set [2] (ID, 100 μCi), the “Liver, % of administered dose” value came out at 0.63 ± 0.37%; the “Total GI (% recovery from GI tissue, GI contents & GI wash)” value is reported as 60.87 ± 16.74%; the “Kidney, % of administered dose” value turned out to be 0.16 ± 0.17%; the “Plasma, % of administered dose” value is 0.06 ± 0.01%. For the same compound, in data set [2] (ID, 100 μCi), the “Total Recovery, % of administered dose” value is reported as 61.79 ± 16.93%. For the same compound, in data set [2] (ID, 100 μCi, listed as 3H-Kappa peptide Kaffiralin-1), the “Plasma, % of administered dose” value worked out at 0.06±0.01%. Besides, in data set [2] (IV, 10 μCi), the “GI Tissue, % of administered dose” value is recorded as 1.62 ± 0.41%; the “GI Washing, % of administered dose” value was determined as 1.98 ± 1.01%; the “GI contents, % of administered dose” value is reported as 23.50 ± 11.04%; the “Liver, % of administered dose” value turned out to be 6.66 ± 1.77%. Further, in data set [2] (IV, 10 μCi), the “Total GI (% recovery from GI tissue, GI contents & GI wash)” value worked out at 27.10 ± 11.93%; the “Kidney, % of administered dose” value stood at 0.51 ± 0.08%; the “Plasma, % of administered dose” value worked out at 0.16 ± 0.03%; the “Total Recovery, % of administered dose” value was found to be 34.43 ± 13.36%. Also, in data set [2] (setting [4]), the “Liver, % of administered dose” value worked out at 6.66±1.77% and the “Plasma, % of administered dose” value stood at 0.16±0.03%. Moreover, in data set [2] (IV, 10 μCi, listed as 3H Kappa-peptide-Kaffiralin-1), the “Total Recovery, % of administered dose” value is recorded as 34.43±13.36%.

Regarding `CC[C@@H](C)[C@@H](NC(=O)[C@@H](Cc1ccccc1)NC(=O)[C@H](N)Cc1ccccc1)C(=O)N[C@H](CCCNC(=N)N)C(=O)N[C@H](CCCCNC(=O)[C@H]1CCCN1C(=O)[C@@H](C)NC(=O)[C@@H](C)NC(=O)[C@@H](CC(C)C)NC(=O)[C@@H](CC(C)C)NC(=O)[C@H](NC(=O)[C@H]1CCCN1C(=O)[C@@H](CC(C)C)NC(=O)[C@@H](CC(C)C)NC(=O)[C@H](NC(=O)[C@@H](C)NC(=O)[C@@H](C)NC(=O)[C@@H](C)NC(=O)[C@@H](CCCCN)NC(=O)[C@H](N)CCCCN)C(C)C)C(C)C)C(N)=O` [P10-110, H-ffirk(kkaaavllpvllaap-NH-e)-NH2], the “opioid activity post conjugation” value on kappa receptor is “significantly reduced”.

Regarding `CC[C@@H](C)[C@@H](NC(=O)[C@@H](Cc1ccccc1)NC(=O)[C@H](N)Cc1ccccc1)C(=O)N[C@H](CCCNC(=N)N)C(=O)NCCCC[C@@H](NC(=O)[C@H]1CCCN1C(=O)[C@@H](C)NC(=O)[C@@H](C)NC(=O)[C@@H](CC(C)C)NC(=O)[C@@H](CC(C)C)NC(=O)[C@H](NC(=O)[C@H]1CCCN1C(=O)[C@@H](CC(C)C)NC(=O)[C@@H](CC(C)C)NC(=O)[C@H](NC(=O)[C@@H](C)NC(=O)[C@@H](C)NC(=O)[C@@H](C)NC(=O)[C@@H](CCCCN)NC(=O)[C@H](N)CCCCN)C(C)C)C(C)C)C(N)=O` [P10-114, H-kkaaavllpvllaapk(ffir-NH-e)-NH2], the IC50 was found to be 1000 pM at kappa receptor (Day 5, second of duplicates, read-out: IC50); 800 pM at kappa receptor (Day 82, first of triplicates, read-out: IC50); 800 pM at kappa receptor (Day 82, second of triplicates, read-out: IC50). Also, on kappa receptor, the “opioid activity post conjugation” value was “retained, or even enhanced”.

Consider `CC[C@@H](C)[C@@H](NC(=O)[C@@H](Cc1ccccc1)NC(=O)[C@H](N)Cc1ccccc1)C(=O)N[C@H](CCCNC(=N)N)C(=O)NCCCC[C@@H](NC(=O)[C@H]1CCCN1C(=O)[C@@H](C)NC(=O)[C@@H](C)NC(=O)[C@@H](CC(C)C)NC(=O)[C@@H](CC(C)C)NC(=O)[C@H](NC(=O)[C@H]1CCCN1C(=O)[C@@H](CC(C)C)NC(=O)[C@@H](CC(C)C)NC(=O)[C@H](NC(=O)[C@@H](C)NC(=O)[C@@H](C)NC(=O)[C@@H](C)NC(=O)[C@@H](CCCCN)NC(=O)[C@@H](CCCCN)NC(=O)[C@@H](N)CCCCNC(=O)CCCCCNC(=O)CCCC[C@@H]1SC[C@@H]2NC(=O)N[C@@H]21)C(C)C)C(C)C)C(N)=O` [P34-154, H-K(biotin-LC)kkaaavllpvllaapk(ffir-NH-e)-NH2], for which, on kappa receptor, the “opioid activity post conjugation” value is recorded as “retained activity”.

As for `CC[C@@H](C)[C@@H](NC(=O)[C@@H](Cc1ccccc1)NC(=O)[C@H](N)Cc1ccccc1)C(=O)N[C@H](CCCNC(=N)N)C(=O)NCCCC[C@H](NC(=O)[C@@H]1CCCN1C(=O)[C@H](C)NC(=O)[C@H](C)NC(=O)[C@H](CC(C)C)NC(=O)[C@H](CC(C)C)NC(=O)[C@@H](NC(=O)[C@@H]1CCCN1C(=O)[C@H](CC(C)C)NC(=O)[C@H](CC(C)C)NC(=O)[C@@H](NC(=O)[C@H](C)NC(=O)[C@H](C)NC(=O)[C@H](C)NC(=O)[C@H](CCCCN)NC(=O)[C@H](CCCCN)NC(=O)[C@@H](N)CCCCNC(=O)CCCCCNC(=O)CCCC[C@@H]1SC[C@@H]2NC(=O)N[C@@H]21)C(C)C)C(C)C)C(N)=O` [P37-114], on kappa receptor (setting [5]), the IC50 was 400 pM. Moreover, at kappa receptor, the “opioid activity post conjugation” value is recorded as “activity equivalent to that observed with ELAN207”.

For the compound `CC[C@@H](C)[C@@H](NC(=O)[C@@H](Cc1ccccc1)NC(=O)[C@H](N)Cc1ccccc1)C(=O)N[C@H](CCCNC(=N)N)C(=O)NCCCC[C@H](NC(=O)[C@@H](CCCCN)NC(=O)[C@@H](CCCCN)NC(=O)[C@@H](C)NC(=O)[C@@H](C)NC(=O)[C@@H](C)NC(=O)[C@H](NC(=O)[C@@H](CC(C)C)NC(=O)[C@@H](CC(C)C)NC(=O)[C@H]1CCCN1C(=O)[C@H](NC(=O)[C@@H](CC(C)C)NC(=O)[C@@H](CC(C)C)NC(=O)[C@@H](C)NC(=O)[C@@H](C)NC(=O)[C@H]1CCCN1C(=O)[C@@H](N)CCCCNC(=O)CCCCCNC(=O)CCCC[C@@H]1SC[C@@H]2NC(=O)N[C@@H]21)C(C)C)C(C)C)C(N)=O` [P37-115, H-K(biotin-LC)paallvpllvaaakkK(ffir-NH-e)-NH2], the “opioid activity post conjugation” value at kappa receptor was “activity equivalent to that observed with ELAN207”.

Turning to `CC[C@@H](C)[C@@H](NC(=O)[C@@H](Cc1ccccc1)NC(=O)[C@H](N)Cc1ccccc1)C(=O)N[C@H](CCCNC(=N)N)C(=O)NCCCC[C@H](NC(=O)[C@@H]1CSSC[C@H](NC(=O)[C@H](CCCCN)NC(=O)[C@H](CCCCN)NC(=O)[C@@H](N)CCCCNC(=O)CCCCCNC(=O)CCCC[C@@H]2SC[C@@H]3NC(=O)N[C@@H]32)C(=O)N[C@@H](C)C(=O)N[C@@H](C)C(=O)N[C@@H](C(C)C)C(=O)N[C@@H](CC(C)C)C(=O)N[C@@H](CC(C)C)C(=O)N2CCC[C@H]2C(=O)N[C@@H](C(C)C)C(=O)N[C@@H](CC(C)C)C(=O)N[C@@H](CC(C)C)C(=O)N[C@@H](C)C(=O)N1)C(N)=O` [P37-116], at kappa receptor (setting [5]), the IC50 turned out to be 200 pM. Besides, the “opioid activity post conjugation” value at kappa receptor is given as “activity equivalent to that observed with ELAN207”.

One may read the bioavailability as the share of a dose that reaches the circulation, judged against a reference dose that is usually intravenous. The term clearance denotes the rate of elimination divided by the concentration. Read a low clearance as a low capacity for elimination. For orientation: IC50 means the concentration at which inhibition is half-maximal.
